For series [1] the following is noted: known drug, background; cited from earlier work.
The conditions of series [2]: known drug, background; cited from earlier work. The source holds these as a separate data set.
The conditions of series [3]: known drug, background; cited from earlier work. The source holds these as a separate data set.
The next series can be described thus: moisture sensitivity. The format is physicochemical.
A further series in a line: aqueous solubility. The series is classed as physicochemical.
The next series can be described thus: logP. The format is physicochemical.
A short description of the next series: pKa. The format is physicochemical.
A further series can be described thus: logD (pH7.4). The format is physicochemical.

Molecules are shown by their SMILES. Where two headings read alike, the source gives them in different places. A value given as a limit tells only on which side of the number the result lay.

For the compound `CC(C(=O)O)c1cccc(C(=O)c2ccccc2)c1` (racemic) [Ketoprofen, (RS)-2-(3-benzoylphenyl)propanoic acid], the logP entry in series [1] is “about 0.97”. Moreover, the “logD (pH7.4)” value in series [2] was “about 1.34”. For the same compound, in series [3], the pKa entry is “about 5.94”.

As for `CNc1cc2[nH]c(=O)n(-c3ccc(NC(=O)NS(=O)(=O)c4ccc(Cl)s4)cc3)c(=O)c2cc1F.[K]` [Compound 1, [4-(6-fluoro-7-methylamino-2,4-dioxo-1,4-dihydro-2H-quinazolin-3-yl)-phenyl]-5-chloro-thiophen-2-yl-sulfonylurea potassium salt], the moisture sensitivity result in “moisture sensitivity” is on record as “moisture sensitive”. This compound had an aqueous solubility in “aqueous solubility” (at about 37° C.) below 0.1 mg/mL. The “aqueous solubility of the free acid form” value in the series “aqueous solubility” (free acid form, pH 1.0-7.4) is below 0.1 mg/mL. Also, in “logP”, the logP entry is recorded as “about 2.5”. In addition, the pKa entry in the series “pKa” is “about 3.3”. The “logD (pH7.4)” value in “logD (pH7.4)” was “about −1.6”.

For the compound `COc1ccc2c(c1)c(CC(=O)O)c(C)n2C(=O)c1ccc(Cl)cc1` [Indomethacin], the logP result in series [1] was “about 3.8”. In series [2], the “logD (pH7.4)” value is “about 0.30”.
